Assay results published in PMC7343282, “Tissue Distribution of Several Series of Cationic Surfactants in Rainbow Trout (Oncorhynchus mykiss) Following Exposure via Water” (Environmental Science & Technology, 2020).

Test system: rainbow trout (Oncorhynchus mykiss)
Experiment: Tissue concentrations in rainbow trout after 7 d exposure via water (two mixtures)
Format: in vivo
Procedure: The study was conducted with rainbow trout (Oncorhynchus mykiss) weighing between 98 and 165 g. The fish were purchased from Nordic trout Sweden AB and held in the aquaria facility prior to the experiment in February 2018. Ethical approval for the experiments was obtained from Stockholms djurförsöksetiska nämnd (decision 9967-2017). The experiments were conducted in 300 L fiberglass aquaria with a water renewal rate of 1.3 L min^–1 (MIX 1) and 1.45 L min^–1 (MIX 2). The water temperature was 10 °C and the pH 7.5. The water hardness was estimated to be 1.1 mM Ca^2+ based on information from the water supplier. The aquaria water was circulated through a filter of polyester wool at 800–1200 L h^–1 with an Eheim 2273 Pro 4+ pump. The outflow from the filter pump was placed above the water surface, providing for aeration. The lighting was dim and programmed on a 12 h light/12 h dark cycle. The fish were fed fish food pellets supplied by the fish farm at 1.0% of their body weight per day.
A solution of the test chemical mixture in methanol was infused continuously (3.5 and 3.8 μL min^–1 for MIX 1 and MIX 2, respectively) into the water inflow using a syringe pump. The intended concentrations of the chemicals in water ranged from 2.5 to 50 μg L^–1 (Table 1). They were selected with the help of modeled estimates of the BCF that were based on reported and extrapolated membrane water partition coefficients[7] and biotransformation rate constants predicted with quantitative structure activity relationships (QSARs)[24],[25] to parameterize the BIONIC model.[26] Based on these estimates, we selected an exposure concentration which would result in concentrations in fish that were clearly above the limit of quantification (LOQ) of the analytical method, while trying to keep the quantifiable exposure concentration as low as possible to minimize the risk of toxic effects and micelle formation (see comparison of intended concentrations with available toxicological data in Table S4).
The surface of the fish posterior of the gills was rinsed with 100% methanol to remove test chemical residues adsorbed to the outer surface of the skin and absorbed in the skin mucus. […] The fish were dissected and the liver, the kidney, the gills, and the remaining contents of the abdominal cavity were taken and weighed. Skin and muscle samples were prepared from the upper dorsal region on semi-frozen fish after the methanol rinse had removed the mucus. The main part of the subcutaneous fat tissue was included in the muscle samples rather than in the skin samples. All samples were stored frozen at −20 °C until further analysis.
For 6 fish from each aquarium and 3 control fish, samples of muscle, skin, liver, and gills were homogenized in a bullet blender (muscle and liver) (MiniG, SPEXsamplePrep) or in a cryo-mill (skin and gill) (Mixer mill cryomill, Retsch GmbH). A sub-sample of 0.5–1.2 g of the homogenate was extracted twice in methanol (4 mL, 50 °C, ultra-sound, 60 min), employing centrifugation at 4000 rpm for phase separation. Further information on the extraction efficiency of this method can be found in the Supporting Information (Table S5 and accompanying text). Isotope labeled standards of Q10 (D21), Q14 (D29), and P16 (D33) were added to a portion of the extract corresponding to 12–75 mg of the sample. The extract volume was adjusted to 3 mL with methanol and then cleaned up on a weak cationic exchange SPE column (WCX, 60 mg, 30 μm particle size, waters). Solvent elution was performed by gravity flow. The column was conditioned with 2 mL of methanol, followed by 2 mL of Milli-Q water adjusted to pH 7 with ammonium hydroxide to activate the ion exchange. The sample extract was loaded onto the column, and it was subsequently rinsed with 20 mL of methanol.

[1] = rainbow trout (Oncorhynchus mykiss), in vivo, 7 d
[2] = rainbow trout (Oncorhynchus mykiss), in vivo, 7 d, pH 7.5
[3] = mean of exposed fish, Table S10
[4] = mean of exposed fish, Table S11
[5] = mean of exposed fish, Table S12
[6] = mean of exposed fish, Table S13
[7] = mean of exposed fish, Table S14
[8] = mean of exposed fish, Table S15
[9] = methanol rinse normalized to fish surface area, mean of six fish (RSD %)
[10] = wet weight, mean of six fish (RSD % in brackets), 7 d exposure, Q10 below LOQ
[11] = wet weight, mean of six fish (RSD %), 7 d exposure, Q10, Q14 below LOQ

CCCCCCCCCCCCCN [P13, tridecylamine]
Concentration in gills [1]: 17 800 (12) ng g^–1
Concentration in liver [1]: 50 000 (26) ng g^–1
Concentration in skin [1]: 2400 (19) ng g^–1
Concentration in blood [2]: 540 (12) ng g^–1
Concentration in muscle [2]: 530 (16) ng g^–1
Concentration in skin, per surface area [2]: 195 ng cm-2

CCCCCCCCCN [P9, Nonylamine]
Concentration in gills [1]: 1200 (12) ng g^–1
Concentration in liver [1]: 1710 (40) ng g^–1
Concentration in skin [1]: 132 (36) ng g^–1
Concentration in blood [2]: 46 (29) ng g^–1
Concentration in muscle [2]: 27 (39) ng g^–1
Concentration in skin, per surface area [2]: 11.6 ng cm-2

CCCCCCCCCCCCCN(C)C [T13, N,N-dimethyltridecylamine]
Concentration in blood (exposed fish #1): 890 ng/g
Concentration in gills (exposed fish #1): 9077 ng/g
Concentration in gills, surface area-normalized (exposed fish #1): 140 ng cm-2
Concentration in liver (exposed fish #1): 6570 ng/g
Concentration in mucus (exposed fish #1): 57 ng cm-2
Concentration in muscle (exposed fish #1): 580 ng/g
Concentration in skin (exposed fish #1): 1879 ng/g
Concentration in skin, per surface area (exposed fish #1): 89 ng cm-2
Concentration in blood (exposed fish #2): 816 ng/g
Concentration in gills (exposed fish #2): 9391 ng/g
Concentration in gills, surface area-normalized (exposed fish #2): 150 ng cm-2
Concentration in liver (exposed fish #2): 8202 ng/g
Concentration in mucus (exposed fish #2): 59 ng cm-2
Concentration in muscle (exposed fish #2): 593 ng/g
Concentration in skin (exposed fish #2): 1877 ng/g
Concentration in skin, per surface area (exposed fish #2): 160 ng cm-2
Concentration in blood (exposed fish #3): 1018 ng/g
Concentration in liver (exposed fish #3): 13696 ng/g
Concentration in mucus (exposed fish #3): 52 ng cm-2
Concentration in muscle (exposed fish #3): 601 ng/g
Concentration in skin (exposed fish #3): 2115 ng/g
Concentration in skin, per surface area (exposed fish #3): 150 ng cm-2
Concentration in blood (exposed fish #4): 858 ng/g
Concentration in gills (exposed fish #4): 9586 ng/g
Concentration in gills, surface area-normalized (exposed fish #4): 178 ng cm-2
Concentration in liver (exposed fish #4): 20532 ng/g
Concentration in mucus (exposed fish #4): 63 ng cm-2
Concentration in muscle (exposed fish #4): 882 ng/g
Concentration in skin (exposed fish #4): 2718 ng/g
Concentration in skin, per surface area (exposed fish #4): 154 ng cm-2
Concentration in blood (exposed fish #5): 795 ng/g
Concentration in gills (exposed fish #5): 11785 ng/g
Concentration in gills, surface area-normalized (exposed fish #5): 209 ng cm-2
Concentration in liver (exposed fish #5): 12097 ng/g
Concentration in mucus (exposed fish #5): 70 ng cm-2
Concentration in muscle (exposed fish #5): 767 ng/g
Concentration in skin (exposed fish #5): 1738 ng/g
Concentration in skin, per surface area (exposed fish #5): 154 ng cm-2
Concentration in blood (exposed fish #6): 1205 ng/g
Concentration in gills (exposed fish #6): 11130 ng/g
Concentration in gills, surface area-normalized (exposed fish #6): 148 ng cm-2
Concentration in liver (exposed fish #6): 9499 ng/g
Concentration in mucus (exposed fish #6): 70 ng cm-2
Concentration in muscle (exposed fish #6): 606 ng/g
Concentration in skin (exposed fish #6): 2209 ng/g
Concentration in skin, per surface area (exposed fish #6): 162 ng cm-2
Concentration in blood [3]: 930 ng/g
Concentration in muscle [4]: 672 ng/g
Concentration in liver [5]: 11766 ng/g
Concentration in gills [6]: 10194 ng/g
Concentration in gills, surface area-normalized [6]: 165 ng cm-2
Concentration in skin [7]: 2089 ng/g
Concentration in skin, per surface area [7]: 145 ng cm-2
Concentration in mucus [8]: 62 ng cm-2
Concentration in mucus [9]: 62 (9) ng cm^–2
Concentration in blood [10]: 930 (17) ng g^–1
Concentration in muscle [11]: 670 (19) ng g^–1
Concentration in skin [11]: 2100 (17) ng g^–1

CCCCCCCCCN(C)C [T9, N,N-dimethylnonylamine]
Concentration in blood (exposed fish #1): 305 ng/g
Concentration in gills (exposed fish #1): 1126 ng/g
Concentration in gills, surface area-normalized (exposed fish #1): 15.7 ng cm-2
Concentration in liver (exposed fish #1): 3588 ng/g
Concentration in mucus (exposed fish #1): 19 ng cm-2
Concentration in muscle (exposed fish #1): 173 ng/g
Concentration in skin, per surface area (exposed fish #1): 48 ng cm-2
Concentration in blood (exposed fish #2): 334 ng/g
Concentration in gills (exposed fish #2): 1320 ng/g
Concentration in gills, surface area-normalized (exposed fish #2): 17.4 ng cm-2
Concentration in liver (exposed fish #2): 2592 ng/g
Concentration in mucus (exposed fish #2): 17 ng cm-2
Concentration in muscle (exposed fish #2): 173 ng/g
Concentration in skin, per surface area (exposed fish #2): 32 ng cm-2
Concentration in blood (exposed fish #3): 475 ng/g
Concentration in gills (exposed fish #3): 1432 ng/g
Concentration in liver (exposed fish #3): 2863 ng/g
Concentration in mucus (exposed fish #3): 15 ng cm-2
Concentration in muscle (exposed fish #3): 200 ng/g
Concentration in skin, per surface area (exposed fish #3): 28 ng cm-2
Concentration in blood (exposed fish #4): 251 ng/g
Concentration in gills (exposed fish #4): 1130 ng/g
Concentration in gills, surface area-normalized (exposed fish #4): 17.5 ng cm-2
Concentration in liver (exposed fish #4): 1593 ng/g
Concentration in mucus (exposed fish #4): 18 ng cm-2
Concentration in muscle (exposed fish #4): 146 ng/g
Concentration in skin, per surface area (exposed fish #4): 32 ng cm-2
Concentration in blood (exposed fish #5): 323 ng/g
Concentration in gills (exposed fish #5): 1240 ng/g
Concentration in gills, surface area-normalized (exposed fish #5): 17.6 ng cm-2
Concentration in liver (exposed fish #5): 5463 ng/g
Concentration in mucus (exposed fish #5): 12 ng cm-2
Concentration in muscle (exposed fish #5): 158 ng/g
Concentration in skin, per surface area (exposed fish #5): 28 ng cm-2
Concentration in blood (exposed fish #6): 291 ng/g
Concentration in gills (exposed fish #6): 869 ng/g
Concentration in gills, surface area-normalized (exposed fish #6): 11.3 ng cm-2
Concentration in liver (exposed fish #6): 7230 ng/g
Concentration in mucus (exposed fish #6): 9 ng cm-2
Concentration in muscle (exposed fish #6): 111 ng/g
Concentration in skin, per surface area (exposed fish #6): 19 ng cm-2
Concentration in blood [3]: 330 ng/g
Concentration in muscle [4]: 160 ng/g
Concentration in liver [5]: 3887 ng/g
Concentration in gills [6]: 1186 ng/g
Concentration in gills, surface area-normalized [6]: 15.9 ng cm-2
Concentration in skin, per surface area [7]: 31 ng cm-2
Concentration in mucus [8]: 15 ng cm-2
Concentration in mucus [9]: 15 (24) ng cm^–2
Concentration in gills (wet weight, mean of fish (RSD %), 7 d exposure): 1190 (16) ng g^–1
Concentration in blood [10]: 330 (23) ng g^–1
Concentration in liver [11]: 3900 (49) ng g^–1
Concentration in muscle [11]: 160 (19) ng g^–1
Concentration in skin [11]: 390 (40) ng g^–1
